Columns and labels:
[1] = target: T1, Protein cereblon/Bcl-2-like protein 1 (Homo sapiens, UniProt Q07817+Q96SW2); assay: PROTAC activity at CRBN/BCL-XL in human WI-38 cells assessed as induction of BCL-XL degradation incubated for 16 hrs by Western blot analysis; format: cell-based
Target sequence in this assay (Q07817 whole entry): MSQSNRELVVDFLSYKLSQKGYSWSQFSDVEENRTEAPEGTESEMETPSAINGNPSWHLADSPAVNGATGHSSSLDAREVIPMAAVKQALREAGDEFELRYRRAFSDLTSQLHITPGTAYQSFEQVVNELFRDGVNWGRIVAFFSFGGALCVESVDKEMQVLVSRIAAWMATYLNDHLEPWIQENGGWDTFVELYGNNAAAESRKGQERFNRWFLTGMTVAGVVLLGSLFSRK
Target sequence in this assay (Q96SW2 whole entry): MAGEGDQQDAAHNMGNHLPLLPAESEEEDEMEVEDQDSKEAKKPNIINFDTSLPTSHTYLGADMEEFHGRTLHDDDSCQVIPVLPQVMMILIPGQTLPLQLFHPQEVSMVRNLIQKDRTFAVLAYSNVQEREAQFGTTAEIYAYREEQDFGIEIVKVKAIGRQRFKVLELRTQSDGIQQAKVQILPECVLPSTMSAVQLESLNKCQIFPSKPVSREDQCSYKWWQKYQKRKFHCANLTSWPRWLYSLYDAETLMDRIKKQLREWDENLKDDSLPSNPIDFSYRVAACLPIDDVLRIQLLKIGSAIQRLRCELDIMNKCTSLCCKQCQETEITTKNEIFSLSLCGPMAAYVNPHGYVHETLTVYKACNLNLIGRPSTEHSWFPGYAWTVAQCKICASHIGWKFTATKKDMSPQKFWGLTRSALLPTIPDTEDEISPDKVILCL

[2] = target: T1, Protein cereblon/Bcl-2-like protein 1; assay: PROTAC activity at CRBN/BCL-XL in human WI-38 cells assessed as induction of BCL-XL degradation incubated for 16 hrs by Western blot analysis relative to control; format: cell-based
Target sequence in this assay (Q07817 whole entry, looked up): as the sequence (Q07817 whole entry) above
Target sequence in this assay (Q96SW2 whole entry, looked up): as the sequence (Q96SW2 whole entry) above

EC50 [1]: 46 nM
Emax [2]: 96.2%
Structure (SMILES): CC1(C)CCC(c2ccccc2)=C(CN2CCN(c3ccc(C(=O)NS(=O)(=O)c4ccc(N[C@H](CCN5CCN(C(=O)CCCn6cc(COCCOCCNc7cccc8c7C(=O)N(C7CCC(=O)NC7=O)C8=O)nn6)CC5)CSc5ccccc5)c(S(=O)(=O)C(F)(F)F)c4)cc3)CC2)C1 (some centres not stated)

— ChEMBL document CHEMBL5104095, “Proteolysis targeting chimera (PROTAC) in drug discovery paradigm: Recent progress and future challenges” (Eur J Med Chem, 2021)
